Experimental findings from US20250066735A1, “PREPARATION METHOD OF MESENCHYMAL STEM CELL (MSC) AND APPLICATION THEREOF IN KNEE PRODUCT” (GUANGDONG CELL BIOTECHNOLOGY CO. LTD, priority 2024, published 2025) are described below.

The test system of this assay is human bone marrow-derived MSCs. Kind of assay: Trypan blue survival rate of MSCs pre-cultivated with additive medium, after H2O2 challenge. It counts as cell-based. As to conditions: for Cell survival rate-improving effect (in words): compared among additive compositions, H2O2 challenge; for Cell survival rate: third-generation MSCs cultivated with medium additive, then low-sugar DMEM with 100 mM H2O2 for 1 h, Trypan blue. On the procedure:
(1) Isolation of bone marrow-derived MSCs from a bone marrow: 20 mL to 40 mL of a human bone marrow was extracted and added to a sterile glass bottle with 3,000 U heparin, and the human bone marrow and the heparin were fully mixed for anticoagulation. Normal saline was added at the same amount as the human bone marrow to the sterile glass bottle, and mixing was conducted thoroughly to obtain diluted human bone marrow. The diluted human bone marrow was added slowly to a Ficoll liquid level with 1 part by volume of a lymphocyte separation solution (Ficoll separation solution) per 2 parts by volume of the diluted human bone marrow to obtain a mixed system. The mixed system was centrifuged at 2,000 r/min and 20° C. in a horizontal centrifuge for 25 min, and bone marrow-derived MSCs were collected from an interface, washed with normal saline 2 to 3 times, suspended with an appropriate amount of a culture medium, and counted.
(2) Primary cultivation of the bone marrow-derived MSCs: The bone marrow-derived MSCs obtained in the step (1) were inoculated at a density of 0.3×10^6/mL in a basal medium, and the primary cultivation was conducted. The basal medium is Dulbecco's Modified Eagle Medium (DMEM, GIBCO company, America). During the primary cultivation, the medium was changed every 2 d to remove non-adherent cells and continuously purify the human bone marrow-derived MSCs. When a cell density reached 80%, the sub-cultivation was conducted. For an experimental group, an additive composition of NOG and quercetin was added to the basal medium to prepare an experimental medium.
The sub-cultivation was conducted until third-generation human bone marrow-derived MSCs were obtained. The third-generation human bone marrow-derived MSCs were further cultivated with the experimental medium for cell transplantation.
(3) A survival rate of the human bone marrow-derived MSCs was detected with Trypan blue. The human bone marrow-derived MSCs obtained in the step (2) (cells cultivated without NOG and quercetin were adopted as a control group) were transferred to a low-sugar DMEM including 100 mM hydrogen peroxide (H2O2), cultivated for 1 h, stained with Trypan blue, and observed under a microscope to count a cell survival rate.

Consider `O=C(O)CNC(=O)C(=O)O` [compound 2, N-oxalylglycine], for which the “Cell survival rate-improving effect (in words)” value is “inferior cell survival rate-improving effect” and the Cell survival rate is listed as 52.3 ± 0.8%.
For `O=c1c(O)c(-c2ccc(O)c(O)c2)oc2cc(O)cc(O)c12` [compound 1, quercetin], the “Cell survival rate-improving effect (in words)” value is reported as “inferior cell survival rate-improving effect” and the Cell survival rate turned out to be 50.2 ± 0.7%.
